Where two headings read alike, the source gives them in different places. One block for each molecule: values may come before it.
Experiments:
[1] = system: A2780 ovarian cancer cell line; test: MTT cellular viability assay, A2780; format: cell-based; details: Homo sapiens
786-0 = test: NCI-60 cytotoxicity screen; format: cell-based; details: Homo sapiens, NCI-60, 48 h, renal
From the text: (§1) Compounds 3–7 were submitted to the US National Cancer Institute (NIH, Bethesda, Maryland) for screening against the NCI-60 panel of human cancer cell lines, as per standard protocol.

A549 = test: NCI-60 cytotoxicity screen; format: cell-based; details: Homo sapiens, NCI-60, 48 h, NSCLC
From the text: as §1

ACHN = test: NCI-60 cytotoxicity screen; format: cell-based; details: Homo sapiens, NCI-60, 48 h, renal
From the text: as §1

BT 549 = test: NCI-60 cytotoxicity screen; format: cell-based; details: Homo sapiens, NCI-60, 48 h, breast
From the text: as §1

CAKI-1 = test: NCI-60 cytotoxicity screen; format: cell-based; details: Homo sapiens, NCI-60, 48 h, renal
From the text: as §1

COLO205 = test: NCI-60 cytotoxicity screen; format: cell-based; details: Homo sapiens, COLO 205; NCI-60, 48 h, colon
From the text: as §1

DU-145 = test: NCI-60 cytotoxicity screen; format: cell-based; details: Homo sapiens, NCI-60, 48 h, prostate
From the text: as §1

EKVX = test: NCI-60 cytotoxicity screen; format: cell-based; details: Homo sapiens, NCI-60, 48 h, NSCLC
From the text: as §1

H23 = test: NCI-60 cytotoxicity screen; format: cell-based; details: Homo sapiens, NCI-60, 48 h, NSCLC
From the text: as §1

H460 = test: NCI-60 cytotoxicity screen; format: cell-based; details: Homo sapiens, NCI-60, 48 h, NSCLC
From the text: as §1

H522 = test: NCI-60 cytotoxicity screen; format: cell-based; details: Homo sapiens, NCI-60, 48 h, NSCLC
From the text: as §1

HCT116 = test: NCI-60 cytotoxicity screen; format: cell-based; details: Homo sapiens, HCT-116; NCI-60, 48 h, colon
From the text: as §1

HCT15 = test: NCI-60 cytotoxicity screen; format: cell-based; details: Homo sapiens, HCT-15; NCI-60, 48 h, colon
From the text: as §1

HL-60 = test: NCI-60 cytotoxicity screen; format: cell-based; details: Homo sapiens, NCI-60, 48 h, leukaemia
From the text: as §1

HOP-62 = test: NCI-60 cytotoxicity screen; format: cell-based; details: Homo sapiens, NCI-60, 48 h, NSCLC
From the text: as §1

HS 578 T = test: NCI-60 cytotoxicity screen; format: cell-based; details: Homo sapiens, NCI-60, 48 h, breast
From the text: as §1

IGROV-1 = test: NCI-60 cytotoxicity screen; format: cell-based; details: Homo sapiens, NCI-60, 48 h, ovarian
From the text: as §1

KM12 = test: NCI-60 cytotoxicity screen; format: cell-based; details: Homo sapiens, NCI-60, 48 h, colon
From the text: as §1

LOX IMVI = test: NCI-60 cytotoxicity screen; format: cell-based; details: Homo sapiens, NCI-60, 48 h, melanoma
From the text: as §1

M14 = test: NCI-60 cytotoxicity screen; format: cell-based; details: Homo sapiens, NCI-60, 48 h, melanoma
From the text: as §1

MCF-7 = test: NCI-60 cytotoxicity screen; format: cell-based; details: Homo sapiens, MCF7; NCI-60, 48 h, breast
From the text: as §1

MDA-MB-435 = test: NCI-60 cytotoxicity screen; format: cell-based; details: Homo sapiens, NCI-60, 48 h, melanoma
From the text: as §1

NCI/ADR-RES = test: NCI-60 cytotoxicity screen; format: cell-based; details: Homo sapiens, NCI-60, 48 h, ovarian
From the text: as §1

OVCAR-3 = test: NCI-60 cytotoxicity screen; format: cell-based; details: Homo sapiens, NCI-60, 48 h, ovarian
From the text: as §1

OVCAR-4 = test: NCI-60 cytotoxicity screen; format: cell-based; details: Homo sapiens, NCI-60, 48 h, ovarian
From the text: as §1

OVCAR-8 = test: NCI-60 cytotoxicity screen; format: cell-based; details: Homo sapiens, NCI-60, 48 h, ovarian
From the text: as §1

PC-3 = test: NCI-60 cytotoxicity screen; format: cell-based; details: Homo sapiens, NCI-60, 48 h, prostate
From the text: as §1

RPMI-8226 = test: NCI-60 cytotoxicity screen; format: cell-based; details: Homo sapiens, NCI-60, 48 h, leukaemia
From the text: as §1

RXF 393 = test: NCI-60 cytotoxicity screen; format: cell-based; details: Homo sapiens, NCI-60, 48 h, renal
From the text: as §1

SF-268 = test: NCI-60 cytotoxicity screen; format: cell-based; details: Homo sapiens, NCI-60, 48 h, CNS
From the text: as §1

SF-295 = test: NCI-60 cytotoxicity screen; format: cell-based; details: Homo sapiens, NCI-60, 48 h, CNS
From the text: as §1

SF-539 = test: NCI-60 cytotoxicity screen; format: cell-based; details: Homo sapiens, NCI-60, 48 h, CNS
From the text: as §1

SK-MEL-28 = test: NCI-60 cytotoxicity screen; format: cell-based; details: Homo sapiens, NCI-60, 48 h, melanoma
From the text: as §1

SK-MEL-2 = test: NCI-60 cytotoxicity screen; format: cell-based; details: Homo sapiens, NCI-60, 48 h, melanoma
From the text: as §1

SK-MEL-5 = test: NCI-60 cytotoxicity screen; format: cell-based; details: Homo sapiens, NCI-60, 48 h, melanoma
From the text: as §1

SN12C = test: NCI-60 cytotoxicity screen; format: cell-based; details: Homo sapiens, NCI-60, 48 h, renal
From the text: as §1

SNB-19 = test: NCI-60 cytotoxicity screen; format: cell-based; details: Homo sapiens, NCI-60, 48 h, CNS
From the text: as §1

SNB-75 = test: NCI-60 cytotoxicity screen; format: cell-based; details: Homo sapiens, NCI-60, 48 h, CNS
From the text: as §1

SR = test: NCI-60 cytotoxicity screen; format: cell-based; details: Homo sapiens, NCI-60, 48 h, leukaemia
From the text: as §1

SW620 = test: NCI-60 cytotoxicity screen; format: cell-based; details: Homo sapiens, SW-620; NCI-60, 48 h, colon
From the text: as §1

U251 = test: NCI-60 cytotoxicity screen; format: cell-based; details: Homo sapiens, U-251; NCI-60, 48 h, CNS
From the text: as §1

UACC-62 = test: NCI-60 cytotoxicity screen; format: cell-based; details: Homo sapiens, NCI-60, 48 h, melanoma
From the text: as §1

UO-31 = test: NCI-60 cytotoxicity screen; format: cell-based; details: Homo sapiens, NCI-60, 48 h, renal
From the text: as §1

H322M = test: NCI-60 cytotoxicity screen; format: cell-based, human; details: Homo sapiens, NCI-H322M; NCI-60, 48 h, NSCLC
From the text: as §1

TK-10 = test: NCI-60 cytotoxicity screen; format: cell-based, human; details: Homo sapiens, TK-10; NCI-60, 48 h, renal
From the text: as §1

UACC-257 = test: NCI-60 cytotoxicity screen; format: cell-based, human; details: Homo sapiens, UACC-257; NCI-60, 48 h, melanoma
From the text: as §1

[2] = A2780, MTT, 96 h, read-out: A2780 IC50
[3] = listed as A2780* of Table 4, ovarian, values as in Tables 1 and 2 (MTT), read-out: A2780* cytotoxicity IC50

IC50 [1, 2]: 3500 ± 1300 nM
SMILES: C=C(CN1CCN(c2ccccn2)CC1)c1ccc(C(=O)Nc2ccccc2N)cc1 [Compound 6, N-(2-aminophenyl)-4–(3-(4-(pyridin-2-yl)piperazin-1-yl)prop-1-en-2-yl)benzamide]
IC50 [1, 3]: 3500 nM | IC50 (786-0): 1210 nM | IC50 (A549): 2390 nM | IC50 (ACHN): 1500 nM | IC50 (BT 549): 3940 nM | IC50 (CAKI-1): 1190 nM | IC50 (COLO205): 1710 nM | IC50 (DU-145): 2520 nM | IC50 (EKVX): 5330 nM | IC50 (H23): 940 nM | IC50 (H460): 2810 nM | IC50 (H522): 1560 nM | IC50 (HCT116): 2500 nM | IC50 (HCT15): 1910 nM | IC50 (HL-60): 2190 nM | IC50 (HOP-62): 1320 nM | IC50 (HS 578 T): 1110 nM | IC50 (IGROV-1): 1570 nM | IC50 (KM12): 940 nM | IC50 (LOX IMVI): 930 nM | IC50 (M14): 8470 nM | IC50 (MCF-7): 3160 nM | IC50 (MDA-MB-435): 530 nM | IC50 (NCI/ADR-RES): 1310 nM | IC50 (OVCAR-3): 1240 nM | IC50 (OVCAR-4): 6350 nM | IC50 (OVCAR-8): 1500 nM | IC50 (PC-3): 3780 nM | IC50 (RPMI-8226): 1600 nM | IC50 (RXF 393): 1550 nM | IC50 (SF-268): 1660 nM | IC50 (SF-295): 1390 nM | IC50 (SF-539): 1500 nM | IC50 (SK-MEL-28): 2520 nM | IC50 (SK-MEL-2): 1870 nM | IC50 (SK-MEL-5): 730 nM | IC50 (SN12C): 2360 nM | IC50 (SNB-19): 4860 nM | IC50 (SNB-75): 1480 nM | IC50 (SR): 5330 nM | IC50 (SW620): 1710 nM | IC50 (U251): 1480 nM | IC50 (UACC-62): 1410 nM | IC50 (UO-31): 1800 nM | IC50 (H322M): 3120 nM | IC50 (TK-10): 1850 nM | IC50 (UACC-257): 2320 nM

SMILES: C=C(CN1CCN(c2cccc(C(F)(F)F)n2)CC1)c1ccc(C(=O)Nc2ccccc2N)cc1 [Compound 7, N-(2-aminophenyl)-4–(3-(4–(6-(trifluoromethyl)pyridin-2-yl)piperazin-1-yl)prop-1-en-2-yl)benzamide]
IC50 [1, 2]: 800 ± 100 nM | IC50 [1, 3]: 800 nM | IC50 (786-0): 1970 nM | IC50 (A549): 3320 nM | IC50 (ACHN): 8390 nM | IC50 (BT 549): 920 nM | IC50 (CAKI-1): 510 nM | IC50 (COLO205): 3330 nM | IC50 (DU-145): 1450 nM | IC50 (EKVX): 24300 nM | IC50 (H23): 14100 nM | IC50 (H460): 640 nM | IC50 (H522): 1110 nM | IC50 (HCT116): 540 nM | IC50 (HCT15): 920 nM | IC50 (HL-60): 320 nM | IC50 (HOP-62): 2210 nM | IC50 (HS 578 T): 450 nM | IC50 (IGROV-1): 2010 nM | IC50 (KM12): 670 nM | IC50 (LOX IMVI): 1490 nM | IC50 (M14): 970 nM | IC50 (MCF-7): 350 nM | IC50 (MDA-MB-435): 270 nM | IC50 (NCI/ADR-RES): 640 nM | IC50 (OVCAR-3): 260 nM | IC50 (OVCAR-4): 8360 nM | IC50 (OVCAR-8): 4250 nM | IC50 (PC-3): 420 nM | IC50 (RPMI-8226): 530 nM | IC50 (RXF 393): 670 nM | IC50 (SF-268): 1120 nM | IC50 (SF-295): 390 nM | IC50 (SF-539): 980 nM | IC50 (SK-MEL-28): 2080 nM | IC50 (SK-MEL-2): 5650 nM | IC50 (SK-MEL-5): 400 nM | IC50 (SN12C): 3790 nM | IC50 (SNB-19): 650 nM | IC50 (SNB-75): 670 nM | IC50 (SR): 280 nM | IC50 (SW620): 530 nM | IC50 (U251): 1160 nM | IC50 (UACC-62): 970 nM | IC50 (UO-31): 2750 nM | IC50 (H322M): > 100000 nM | IC50 (TK-10): 16400 nM | IC50 (UACC-257): 26500 nM

From article PMC12217109, “Development of novel benzamide class I selective lysine deacetylase inhibitors as potent anticancer agents” (Journal of Enzyme Inhibition and Medicinal Chemistry, 2025)
